Source: patent publication US7189758B2, “Glucocorticoid mimetics, methods of making them, pharmaceutical formulations, and uses thereof” (Boehringer Ingelheim Pharmaceuticals, Inc., priority 2002, dated 2007)

Legend:
glucocorticoid receptor = settings: in one or more of the above assays; assay not specified
Experimental: Evaluation of agonist or antagonist activity of compounds binding to the glucocorticoid receptor may be determined by any of the assays.
3. Modulation of Tyrosine Aminotransferase (TAT) Induction in Rat Hepatoma Cells
Testing of compounds for agonist or antagonist activity in induction of tyrosine aminotransferase (TAT) in rat hepatoma cells.
H4-II-E-C3 cells were incubated overnight in 96 well plates (20,000 cells/100 μL/well) in MEM medium containing 10% heat inactivated FBS and 1% nonessential amino acids. On the next day, cells were stimulated with the indicated concentrations of dexamethasone or test compound (dissolved in DMSO, final DMSO concentration 0.2%) for 18 hours. Control cells were treated with 0.2% DMSO. After 18 hours, the cells were lysed in a buffer containing 0.1% Triton X-100 and the TAT activity was measured in a photometric assay using tyrosine and alpha-ketoglutarate as substrates.
For measuring antagonist activity, the hepatoma cells were pre-stimulated by addition of dexamethasone (concentration ranges from 3×10^−9 M to 3×10^−8 M) shortly before the test compound was applied to the cells.
4. Modulation of MMTV-Luc Induction in HeLa Cells
Testing of compounds for agonist or antagonist activity in stimulation of MMTV-(mouse mammary tumor virus) promoter in HeLa cells. […]

[1] = molecular target: T1, human glucocorticoid receptor (GR) complex (Homo sapiens, UniProt P04150); assay: Glucocorticoid receptor competitive binding assay (fluorescence polarization, TAMRA-labeled dexamethasone probe); settings: result in words only; IC50 values not given
T1 construct: made in house; host or cells: insect cells (baculovirus expression), used as crude lysate
T1 sequence (P04150 1-777): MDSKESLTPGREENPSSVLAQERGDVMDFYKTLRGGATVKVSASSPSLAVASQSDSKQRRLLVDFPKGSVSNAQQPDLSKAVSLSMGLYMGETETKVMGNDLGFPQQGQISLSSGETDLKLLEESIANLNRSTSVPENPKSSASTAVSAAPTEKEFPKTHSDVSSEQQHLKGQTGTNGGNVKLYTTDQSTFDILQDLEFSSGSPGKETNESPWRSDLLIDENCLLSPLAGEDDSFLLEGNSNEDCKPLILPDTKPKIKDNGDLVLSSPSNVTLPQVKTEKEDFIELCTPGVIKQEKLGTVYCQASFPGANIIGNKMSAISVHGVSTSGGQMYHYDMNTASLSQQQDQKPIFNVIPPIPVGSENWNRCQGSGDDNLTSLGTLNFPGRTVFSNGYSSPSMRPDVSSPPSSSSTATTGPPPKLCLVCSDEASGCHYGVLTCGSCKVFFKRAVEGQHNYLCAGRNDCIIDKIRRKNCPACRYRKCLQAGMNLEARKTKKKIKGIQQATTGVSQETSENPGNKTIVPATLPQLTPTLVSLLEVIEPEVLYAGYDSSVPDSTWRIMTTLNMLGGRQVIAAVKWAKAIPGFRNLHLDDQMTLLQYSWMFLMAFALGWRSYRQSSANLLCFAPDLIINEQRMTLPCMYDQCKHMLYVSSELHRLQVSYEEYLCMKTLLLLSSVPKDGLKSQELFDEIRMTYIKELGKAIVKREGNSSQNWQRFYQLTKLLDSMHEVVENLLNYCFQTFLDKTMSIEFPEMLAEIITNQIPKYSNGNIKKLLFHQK
Experimental: Compounds of the invention were evaluated for binding to the steroid receptor by a fluorescence polarization competitive binding assay.
A. Glucocorticoid Receptor Competitive Binding Assay
Step 1. Characterization of the Fluorescent Probe
The wavelengths for maximum excitation and emission of the fluorescent probe should first be measured. An example of such a probe is rhodamine (TAMRA)-labeled dexamethasone.
The affinity of the probe for the steroid receptor was then determined in a titration experiment. The fluorescence polarization value of the probe in assay buffer was measured on an SLM-8100 fluorometer using the excitation and emission maximum values described above. Aliquots of expression vector lysate were added and fluorescence polarization was measured after each addition until no further change in polarization value was observed. Non-linear least squares regression analysis was used to calculate the dissociation constant of the probe from the polarization values obtained for lysate binding to the probe.
Step 2. Screening for Inhibitors of Probe Binding
This assay uses fluorescence polarization (FP) to quantitate the ability of test compounds to compete with tetramethyl rhodamine (TAMRA)-labeled dexamethasone for binding to a human glucocorticoid receptor (GR) complex prepared from an insect expression system. The assay buffer was: 10 mM TES, 50 mM KCl, 20 mM Na2MoO4.2H2O, 1.5 mM EDTA, 0.04% w/v CHAPS, 10% v/v glycerol, 1 mM dithiothreitol, pH 7.4. Test compounds were dissolved to 1 mM in neat DMSO and then further diluted to 10× assay concentration in assay buffer supplemented with 10% v/v DMSO. Test compounds were serially diluted at 10× assay concentrations in 10% DMSO-containing buffer in 96-well polypropylene plates. Binding reaction mixtures were prepared in 96-well black Dynex microtiter plates by sequential addition of the following assay components to each well: 15 μL of 10× test compound solution, 85 μL of GR-containing baculovirus lysate diluted 1:170 in assay buffer, and 50 μL of 15 nM TAMRA-labeled dexamethasone. Positive controls were reaction mixtures containing no test compound; negative controls (blanks) were reaction mixtures containing 0.7 μM to 2 μM dexamethasone. […] IC50 values were determined by iterative non-linear curve fitting of the FP signal data to a 4-parameter logistic equation.

Compound	activity as antagonists of the glucocorticoid receptor function (glucocorticoid receptor)	activity in the GR binding assay [1]
CC(C)(CC(O)(Cc1ccccc1)C(=O)Nc1ccc2c(c1)COC2=O)c1ccccc1 (stereo not shown) [2-Benzyl-2-hydroxy-4-methyl-4-phenylpentanoic acid (1-oxo-1,3-dihydroisobenzofuran-5-yl)amide]	activity as antagonists	potent activity
CC(C)(CC(O)(CC1CCCCC1)C(=O)Nc1ccc2c(c1)COC2=O)c1ccccc1 (stereo not shown) [2-Cyclohexylmethyl-2-hydroxy-4-methyl-4-phenylpentanoic acid (1-oxo-1,3-dihydroisobenzofuran-5-yl)amide]	activity as antagonists	potent activity
Cc1ccccc1CC(O)(CC(C)(C)c1cc(F)ccc1O)C(=O)Nc1ccc2c(c1)COC2=O (stereo not shown) [4-(5-Fluoro-2-hydroxyphenyl)-2-hydroxy-4-methyl-2-(2-methylbenzyl)pentanoic acid (1-oxo-1,3-dihydroisobenzofuran-5-yl)amide]	–	potent activity
CC(C)(CC(O)(CCc1ccccc1)C(=O)Nc1ccc2c(c1)COC2=O)c1cc(F)ccc1O (stereo not shown) [4-(5-Fluoro-2-hydroxyphenyl)-2-hydroxy-4-methyl-2-phenethylpentanoic acid (1-oxo-1,3-dihydroisobenzofuran-5-yl)amide]	–	potent activity
COc1ccc(F)cc1C(C)(C)CC(O)(Cc1ccccc1C)C(=O)Nc1ccc2c(c1)COC2=O (stereo not shown) [4-(5-Fluoro-2-methoxyphenyl)-2-hydroxy-4-methyl-2-(2-methylbenzyl)pentanoic acid (1-oxo-1,3-dihydroisobenzofuran-5-yl)amide]	–	potent activity
